In article PMC11577759, “The structure of lipopeptides impacts their antiviral activity and mode of action against SARS-CoV-2 in vitro” (Applied and Environmental Microbiology, 2024):

How the values were obtained:
SARS-CoV-2 [1] = assay: Replication / antiviral assay, viral RNA in supernatant by RT-qPCR; format: cell-based; conditions: for Maximal RNA reduction at 100 µg/mL: 72 h pi, compared to untreated infected cells; for EC50 (half maximal effective concentration): SARS-CoV-2 MOI 0.01, Vero E6, viral RNA at 72 h pi by RT-qPCR, mean (standard deviation)
Vero E6 cells = assay: Cytotoxicity, CyQUANT XTT cell viability assay; format: cell-based, Chlorocebus sp.; conditions: for IC50 (half maximal inhibitory concentration, cytotoxicity): Vero E6 cells, XTT, mean (standard deviation), fengycin and caspofungin determined at higher concentrations in a subsequent experiment; for IC50 (half maximal inhibitory concentration, cytotoxicity) / Cell viability: 72 h; for Cell viability: 100 µg/mL, Vero E6
Description: Chlorocebus sp. kidney epithelial cells (Vero E6; ATCC VERO C1008) were cultured in Dulbecco’s Modified Eagle medium (DMEM) High Glucose w/ Stable Glutamine w/ Sodium Pyruvate (VWR, USA) supplemented with 2% (vol/vol) of decomplemented fetal bovine serum (FBS, Biowest, France) and 1% (vol/vol) Penicillin-Streptomycin (VWR, USA). The cells were grown at 37°C in a humidified 5% CO2 atmosphere. Cells were routinely passaged when they reached 100% confluence and were passaged until passage 15.
The cytotoxic activity of the lipopeptides was assessed using a CyQUANT XTT Cell Viability Assay (Thermo Fisher Scientific) according to the manufacturer’s instructions. […] The cells were then incubated for 72 h at 37°C. The kit was then used following the manufacturer’s instructions, and the plates were read at 450 nm and 660 nm using a Multiskan GO Microplate Spectrophotometer (Thermo Fisher Scientific). The percentage of viable cells was calculated as (AT450 − AT660 − AB450) / (AC450 − AC660) × 100%, where AT450, AT660, AB450, AC450, and AC660 represent the absorbance of the tested well at 450 nm, of the tested well at 660 nm, of the blank (only medium) at 450 nm, of the control cells at 450 nm, and of the control cells at 660 nm, respectively. One hundred percent viability corresponds to the viability of uninfected cells. DMSO concentrations ranging from 0.5% (vol/vol) to 0.001% (vol/vol) were used as a negative control for the assay. Every sample was tested in triplicate.

SARS-CoV-2 [2] = tested on: SARS-CoV-2; design: method as in PMID 36868316; conditions: co-incubated with SARS-CoV-2; 12.5 µg/mL iturin A, 25 µg/mL mycosubtilin; Vero cells; cited from earlier work
Vero cells = tested on: Vero cells; design: method as in earlier work; conditions: ref 38 (Shekunov et al.); cited from earlier work

Substance	Maximal RNA reduction at 100 µg/mL (SARS-CoV-2 [1])	EC50 (half maximal effective concentration) (SARS-CoV-2 [1])	IC50 (half maximal inhibitory concentration, cytotoxicity) (Vero E6 cells)	Cell viability (Vero E6 cells)	Viral titer and SARS-CoV-2 cytopathic effects (SARS-CoV-2 [2])	Maximal RNA reduction at 100 µg/mL (SARS-CoV-2 [1]; listed as lichenysin)	IC50 (Vero cells)	Maximal RNA reduction at 100 µg/mL (SARS-CoV-2 [1]; listed as polymyxin B)	Cytotoxicity (Vero E6 cells; concentrations up to 100 µg/mL, Vero E6, 72 h)	Maximal RNA reduction at 100 µg/mL (SARS-CoV-2 [1]; listed as pumilacidin)
Fusaricidin	3.3-log	51.2 (13.6) µg/mL	24.6 (1.1) µg/mL							
Iturin A	3.9-log	18.2 (1.8) µg/mL	4.9 (0.5) µg/mL	no cell viability was observed	could reduce the viral titer and SARS-CoV-2 cytopathic effects (CPEs)					
Lichenysin	6.3-log	25.9 (3.2) µg/mL	28.1 (1.4) µg/mL			6.3 log				
Mycosubtilin	4.1-log	12.9 (2.0) µg/mL	1.8 (0.1) µg/mL	no cell viability was observed	could reduce the viral titer and SARS-CoV-2 cytopathic effects (CPEs)					
Polymyxin B [reference compound]	0.3-log	>100.0 µg/mL	>100.0 µg/mL				1.1 µg/mL	no activity up to 100 µg/mL	did not cause any cytotoxicity	
Pumilacidin	6.3-log	47.8 (0.4) µg/mL	36.0 (3.5) µg/mL							6.3 log
